From patent US9758550B2, “Cobalamin acquisition protein and use thereof” (Woods Hole Oceanographic Institution, priority 2012, dated 2017)
Read-outs that look alike come from different tables or passages of the source.

Key:
[1] = system: T. pseudonana; experiment: Re-supply experiment, growth via in vivo fluorescence; assay type: cell-based, Thalassiosira pseudonana
Experimental: (§1) A. Re-supply Experiment: For both colimitation experiments (T. pseudonana and P. tricornutum), each remaining culture was split in four just after the protein harvest time point. For the T. pseudonana study, the cultures were re-supplied with either 1) nothing, 2) 100 pM B12, 3) 400 nM Fetotal, or 4) both 100 pM B12 and 400 nM Fe. For the P. tricornutum study, the cultures were re-supplied with either 1) nothing, 2) 100 pM B12, 3) 100 nM Fetotal, or 4) both 100 pM B12 and 100 nM Fe.
(§2) For both studies, each culture was monitored for growth via in vivo fluorescence.

[2] = system: P. tricornutum
Experimental: as §1, §2

[3] = system: P. tricornutum cells; experiment: Cobalamin (57Co-B12) uptake rate in P. tricornutum cell lines overexpressing CBA1; assay type: cell-based, Phaeodactylum tricornutum; conditions: CBA1 overexpression vs wild type and Urease-OE1; exponentially growing cells, B12-replete (100 pM B12), 24 hours
Experimental: B12 Uptake Rate Assessments: Inorganic ^57Co was removed from a carrier-free ^57Co-B12 stock solution (MP Biomedicals) via Chelex-100 (Price et al. (1988/1989) “Preparation and Chemistry of the Artificial Algal Culture Medium Aquil,” Biol Oceanogr 6: 443-461) and the remaining solution was used as a radiotracer in cultures of P. tricornutum. Strains (wild type, two cell lines overexpressing CBA1_48322 and one line overexpressing urease) were grown through three successive transfers into media as described above, with 100 pM B12 and 80 μg/mL zeocin added (zeocin not added to wild type). When the cells were in mid-exponential growth in the third transfer, each strain was used to inoculate (3%) three 28 mL polycarbonate tubes containing 20 mL of growth media with 100 pM B12 and 80 μg/mL zeocin and allowed to acclimate for 3 hours. […] B12 uptake was measured by assessing the percentage of added tracer that was taken up into the particulate fraction via gamma counting as previously described (Bertrand et al. (2007) supra) and assuming that total B12 concentrations were 100 pM for the period of uptake. Cell growth was monitored by fluorescence and then translated to cell number via calibration curves created during growth of the 3rd transfer. […]

Q: With `C/C1=C2/[N-][C@H]([C@H](CC(N)=O)[C@@]2(C)CCC(=O)NC[C@H](C)OP(=O)([O-])O[C@H]2[C@@H](O)[C@@H](n3cnc4cc(C)c(C)cc43)O[C@@H]2CO)[C@]2(C)N=C(/C(C)=C3N=C(/C=C4N=C1[C@@H](CCC(N)=O)C\4(C)C)[C@@H](CCC(N)=O)[C@]\3(C)CC(N)=O)[C@@H](CCC(N)=O)[C@]2(C)CC(N)=O.[Co+2]` (stereo in doubt) [cobalamin] as the molecule, how does the growth after re-supply ([1]; low cobalamin culture re-supplied with 100 pM B12) read?
A: rescued the growth

Q: Which growth after re-supply ([1]; low iron culture re-supplied with 400 nM Fe total) does the source give for iron here?
A: rescued the growth

Q: And the growth after re-supply ([2]; low cobalamin/low Fe culture, iron addition alone (100 nM Fe total))?
A: rescued

Q: What about the growth after re-supply ([2]; low iron culture re-supplied with 100 nM Fe total) of the same molecule?
A: rescued the growth

B1: CBA1: cobalamin acquisition protein of P. tricornutum (isoform Pt48322), overexpressed as a YFP fusion in the native host (protein, listed as Phaeodactylum tricornutum)
chain: DEPPACLTSTADLSVDIFTDKVEPLFSQGWNVTYHNTYKIANNLFDNTTYLLYQCGSTPPADVVDNGNFNAVLEIPLSNVGLSQTPHIGFMEQLELVDEIAAFLTDTDFISSPCFLDEIAAGNVLTLVEPSEGVDAPATGNTALSAGTVAFVASFTQVPFDNTVNIQEYSELTNVAVFEWVKFFSVFFNKEHTANQVVEAAESRFDCVAQNAGAVQADNMPVKPVVLWAYYSDFCGGWDVAECPNYYCEFANACGAEIISSTEGNTTVCGAPYMTTEELVELGKDADHWIYPSSNWDTASETFGEQLQNMKAVQDQQVFDYQASGENAWFEQRYAEYYNVLADFCAVVGTTQPLTGRSWFRNVFTEPVGSLPDCSPTQSANILDDVHICFLPTTGGAAAGGGSGSGGSSAKAIAVGTAALAAGLLSLIHVLLF
modifications: YFP fusion
notes: cobalamin acquisition protein of P. tricornutum (isoform Pt48322), overexpressed as a YFP fusion in the native host
Q: With B1 as the molecule, how does the “enhancement of cell specific radiolabeled cobalamin uptake rates” value [3] read?
A: 2 to 3 fold
